Reference: patent publication US20240261258A1, “Presurgical Perineural Administration of Resiniferatoxin For Reduction of Post-Operative Pain” (Sorrento Therapeutics, Inc., priority 2021, published 2024)
Where “and” joins values, the source holds several entries; their conditions need not be identical. Identical values can stand only once.

Experiments:
[1] = system: dog undergoing TPLO, femoral and sciatic nerves; test: TPLO in a single dog after perineural RTX (Example A); type: in vivo
Protocol: A TPLO (Tibial Plateau Osteotomy) was performed on a single dog. Before surgery, 25 μg RTX was administered perineurally to the femoral and sciatic nerves. The procedure included cutting the bone in the leg, changing the angle of the knee articulation, screwing in a plate, and resewing muscle that was cut to access the knee.
After waking up, all of the dog's motor functions were preserved. […] The dog was able to put the affected leg down from time to time when ambulating but, as would be expected, the leg was not fully weight-bearing.

[2] = RTX plasma concentrations after nerve block or local application; type: in vivo, dog; parameters: Plasma concentration: unit not given here
Protocol: Fourteen adult female beagle dogs, weighing 11.9±0.6 kg and between 3-5 years of age, were enrolled in this study. Each animal was randomly assigned to one of four groups. Four dogs (group 1) received a femoral and sciatic nerve block with 12.5 μg RTX per nerve (25 μg RTX total) diluted with sterile saline for a total volume of 2 mL (half volume per block). Another four dogs (group 2) received a femoral and a sciatic nerve block with 3.12 μg RTX per nerve block (6.25 μg RTX total) diluted with sterile saline for a total volume of 2 mL (half volume per block). Group 3 (4 animals) received a femoral and sciatic nerve block with 5 mg bupivacaine total (standard of care) plus a total of 50 μg RTX (total volume of 4 mL, concentration 12.5 μg/mL) applied locally to the cut on the tibia for 10 min. Group 4 (2 animals) was the control group and received a femoral and a sciatic nerve block with 5 mg bupivacaine total (standard of care).
Blood (4-5 mL) was collected at the beginning of the study for complete blood count and chemistry parameters. Another 2 mL sample was collected at time 0 (baseline), 5, 15, 45, 60, and 90 minutes, and at 2, 3, 4, 6, and 8 hours after RTX administration for pharmacokinetic analysis to determine how plasma levels of RTX change over time. Dog plasma samples were extracted using an organic solvent mixture, dried under nitrogen, reconstituted and analyzed by reversed-phase HPLC. The mobile phase was nebulized using heated nitrogen in a Z-spray source/interface set to electrospray positive ionization mode. The ionized compounds are detected using tandem mass spectrometry or MS/MS.
RTX Plasma concentrations (pg/mL) were measured in the dogs following administration of RTX solution as femoral and sciatic nerve blocks.

[3] = 25 μg RTX perineurally before surgery

Compound: C=C(C)[C@]12C[C@@H](C)[C@@]34O[C@](Cc5ccccc5)(O[C@@H]1[C@@H]3C=C(COC(=O)Cc1ccc(O)c(OC)c1)C[C@]1(O)C(=O)C(C)=C[C@@H]41)O2 [RTX, resiniferatoxin]
- Need to deepen the general anesthesia during cutting of the bone [1, 3]: no need to deepen the general anesthesia
- Need to increase the opioid dose for the last part of the surgery [1, 3]: no need to increase the opioid dose
- Pain at manipulation, inflammation, and swelling (standardized veterinary post-surgical pain scale) [1, 3]: lower than expected
- Time until the dog was up and walking [1, 3]: Within a couple of hours
- Reaction of the dog during cutting of the bone ([1]; 25 μg RTX perineurally to femoral and sciatic nerves before surgery): no reaction
- Plasma concentrations for RTX ([2]; Group 1 High Dose, 25 μg total F/Sc nerve block, 45 min, dogs 0271, 2968, 3837, 5635 in c3-c6): BQL (BQL—Below the Quantifiable Limit < 50.0 pg/mL)
- Plasma concentrations for RTX ([2]; Group 1 High Dose, 25 μg total F/Sc nerve block, 60 min, dogs 0271, 2968, 3837, 5635 in c3-c6): BQL (BQL—Below the Quantifiable Limit < 50.0 pg/mL)
- Plasma concentrations for RTX ([2]; Group 1 High Dose, 25 μg total F/Sc nerve block, 6 h, dogs 0271, 2968, 3837, 5635 in c3-c6): 0.0941 ng/mL and 0.182 ng/mL and 0.13 ng/mL
- Plasma concentrations for RTX ([2]; Group 1 High Dose, 25 μg total F/Sc nerve block, 8 h, dogs 0271, 2968, 3837, 5635 in c3-c6): 0.0623 ng/mL and 0.117 ng/mL and 0.0991 ng/mL
- Plasma concentrations for RTX ([2]; Group 1 High Dose, 25 μg total F/Sc nerve block, Predose, dogs 0271, 2968, 3837, 5635 in c3-c6): BQL (BQL—Below the Quantifiable Limit < 50.0 pg/mL)
- Plasma concentrations for RTX ([2]; Group 2 Low Dose, 6.25 μg total F/Sc nerve block, 0 min, dogs 2561, 3743, 4681, 5686 in c3-c6): BQL (BQL—Below the Quantifiable Limit < 50.0 pg/mL)
- Plasma concentrations for RTX ([2]; Group 2 Low Dose, 6.25 μg total F/Sc nerve block, 5 min, dogs 2561, 3743, 4681, 5686 in c3-c6): BQL (BQL—Below the Quantifiable Limit < 50.0 pg/mL)
- Plasma concentrations for RTX ([2]; Group 2 Low Dose, 6.25 μg total F/Sc nerve block, 15 min, dogs 2561, 3743, 4681, 5686 in c3-c6): BQL (BQL—Below the Quantifiable Limit < 50.0 pg/mL)
- Plasma concentrations for RTX ([2]; Group 2 Low Dose, 6.25 μg total F/Sc nerve block, 45 min, dogs 2561, 3743, 4681, 5686 in c3-c6): BQL (BQL—Below the Quantifiable Limit < 50.0 pg/mL)
- Plasma concentrations for RTX ([2]; Group 2 Low Dose, 6.25 μg total F/Sc nerve block, 60 min, dogs 2561, 3743, 4681, 5686 in c3-c6): BQL (BQL—Below the Quantifiable Limit < 50.0 pg/mL)
- Plasma concentrations for RTX ([2]; Group 2 Low Dose, 6.25 μg total F/Sc nerve block, 6 h, dogs 2561, 3743, 4681, 5686 in c3-c6): BQL (BQL—Below the Quantifiable Limit < 50.0 pg/mL)
- Plasma concentrations for RTX ([2]; Group 2 Low Dose, 6.25 μg total F/Sc nerve block, 8 h, dogs 2561, 3743, 4681, 5686 in c3-c6): BQL (BQL—Below the Quantifiable Limit < 50.0 pg/mL)
- Plasma concentrations for RTX ([2]; Group 2 Low Dose, 6.25 μg total F/Sc nerve block, Predose, dogs 2561, 3743, 4681, 5686 in c3-c6): BQL (BQL—Below the Quantifiable Limit < 50.0 pg/mL)
- Plasma concentrations for RTX ([2]; Group 3 Local, 50 μg on bone incision, 0 min, dogs 2272, 3007, 3722, 9501 in c3-c6): BQL (BQL—Below the Quantifiable Limit < 50.0 pg/mL)
- Plasma concentrations for RTX ([2]; Group 3 Local, 50 μg on bone incision, 5 min, dogs 2272, 3007, 3722, 9501 in c3-c6): BQL (BQL—Below the Quantifiable Limit < 50.0 pg/mL)
- Plasma concentrations for RTX ([2]; Group 3 Local, 50 μg on bone incision, 15 min, dogs 2272, 3007, 3722, 9501 in c3-c6): BQL (BQL—Below the Quantifiable Limit < 50.0 pg/mL)
- Plasma concentrations for RTX ([2]; Group 3 Local, 50 μg on bone incision, 45 min, dogs 2272, 3007, 3722, 9501 in c3-c6): BQL (BQL—Below the Quantifiable Limit < 50.0 pg/mL)
- Plasma concentrations for RTX ([2]; Group 3 Local, 50 μg on bone incision, 60 min, dogs 2272, 3007, 3722, 9501 in c3-c6): BQL (BQL—Below the Quantifiable Limit < 50.0 pg/mL)
- Plasma concentrations for RTX ([2]; Group 3 Local, 50 μg on bone incision, 90 min, dogs 2272, 3007, 3722, 9501 in c3-c6): BQL (BQL—Below the Quantifiable Limit < 50.0 pg/mL)
- Plasma concentrations for RTX ([2]; Group 3 Local, 50 μg on bone incision, 2 h, dogs 2272, 3007, 3722, 9501 in c3-c6): BQL (BQL—Below the Quantifiable Limit < 50.0 pg/mL)
- Plasma concentrations for RTX ([2]; Group 3 Local, 50 μg on bone incision, 3 h, dogs 2272, 3007, 3722, 9501 in c3-c6): BQL (BQL—Below the Quantifiable Limit < 50.0 pg/mL)
- Plasma concentrations for RTX ([2]; Group 3 Local, 50 μg on bone incision, 4 h, dogs 2272, 3007, 3722, 9501 in c3-c6): BQL (BQL—Below the Quantifiable Limit < 50.0 pg/mL)
- Plasma concentrations for RTX ([2]; Group 3 Local, 50 μg on bone incision, 6 h, dogs 2272, 3007, 3722, 9501 in c3-c6): BQL (BQL—Below the Quantifiable Limit < 50.0 pg/mL)
- Plasma concentrations for RTX ([2]; Group 3 Local, 50 μg on bone incision, 8 h, dogs 2272, 3007, 3722, 9501 in c3-c6): BQL (BQL—Below the Quantifiable Limit < 50.0 pg/mL)
- Plasma concentrations for RTX ([2]; Group 3 Local, 50 μg on bone incision, Predose, dogs 2272, 3007, 3722, 9501 in c3-c6): BQL (BQL—Below the Quantifiable Limit < 50.0 pg/mL)
- Plasma concentration ([2]; Subject 2968 (group 1), 2 hour timepoint): 1790
- RTX plasma levels ([2]; all dogs that received the local application (50 μg)): below the quantifiable limit at all timepoints
- concentration at 90 min ([2]; female, beagle, dog, plasma, 6.25 μg, Group 2 Low Dose, 6.25 μg total F/Sc nerve block, 90 min, dogs 2561, 3743, 4681, 5686 in c3-c6): 0.085 ng/mL
- concentration at 2 h ([2]; female, beagle, dog, plasma, 6.25 μg, Group 2 Low Dose, 6.25 μg total F/Sc nerve block, 2 h, dogs 2561, 3743, 4681, 5686 in c3-c6): 0.0607 ng/mL
- concentration at 3 h ([2]; female, beagle, dog, plasma, 6.25 μg, Group 2 Low Dose, 6.25 μg total F/Sc nerve block, 3 h, dogs 2561, 3743, 4681, 5686 in c3-c6): 0.0847 ng/mL
- concentration at 4 h ([2]; female, beagle, dog, plasma, 6.25 μg, Group 2 Low Dose, 6.25 μg total F/Sc nerve block, 4 h, dogs 2561, 3743, 4681, 5686 in c3-c6): 0.0506 ng/mL
- concentration at 0 min ([2]; female, beagle, dog, plasma, 25 μg, Group 1 High Dose, 25 μg total F/Sc nerve block, 0 min, dogs 0271, 2968, 3837, 5635 in c3-c6): 0.397 ng/mL
- concentration at 5 min ([2]; female, beagle, dog, plasma, 25 μg, Group 1 High Dose, 25 μg total F/Sc nerve block, 5 min, dogs 0271, 2968, 3837, 5635 in c3-c6): 0.1 ng/mL
- concentration at 15 min ([2]; female, beagle, dog, plasma, 25 μg, Group 1 High Dose, 25 μg total F/Sc nerve block, 15 min, dogs 0271, 2968, 3837, 5635 in c3-c6): 0.0964 ng/mL
- concentration at 90 min ([2]; female, beagle, dog, plasma, 25 μg, Group 1 High Dose, 25 μg total F/Sc nerve block, 90 min, dogs 0271, 2968, 3837, 5635 in c3-c6): 0.0551 ng/mL
- concentration at 6 h ([2]; female, beagle, dog, plasma, 25 μg, Group 1 High Dose, 25 μg total F/Sc nerve block, 6 h, dogs 0271, 2968, 3837, 5635 in c3-c6): 0.105 ng/mL
- concentration at 8 h ([2]; female, beagle, dog, plasma, 25 μg, Group 1 High Dose, 25 μg total F/Sc nerve block, 8 h, dogs 0271, 2968, 3837, 5635 in c3-c6): 0.0656 ng/mL
- RTX plasma levels at last time point ([2]; high dose group (25 μg total nerve block)): still detectable at 8 hours
- Time after which RTX plasma levels fell to below detectable ([2]; low dose group (6.25 μg total nerve block)): 3 to 4 h
- Time after administration until plasma levels of RTX reached detectable levels ([2]; nerve block, regardless of dose, except one dog in group 1 (subject 5635)): at least 90 minutes
